Laboratory results as given in ChEMBL document CHEMBL5678818, “Discovery of potent SOS1 inhibitors that block RAS activation via disruption of the RAS-SOS1 interaction” (Proc Natl Acad Sci U S A, 2019).

Columns and labels:
[1] = target: T1, Cyclin-G-associated kinase (Homo sapiens) (UniProt O14976); assay: Inhibition of GAK (unknown origin) assessed as residual activity at 1000 nM by KINOMEscan analysis relative to control
T1 sequence (whole entry): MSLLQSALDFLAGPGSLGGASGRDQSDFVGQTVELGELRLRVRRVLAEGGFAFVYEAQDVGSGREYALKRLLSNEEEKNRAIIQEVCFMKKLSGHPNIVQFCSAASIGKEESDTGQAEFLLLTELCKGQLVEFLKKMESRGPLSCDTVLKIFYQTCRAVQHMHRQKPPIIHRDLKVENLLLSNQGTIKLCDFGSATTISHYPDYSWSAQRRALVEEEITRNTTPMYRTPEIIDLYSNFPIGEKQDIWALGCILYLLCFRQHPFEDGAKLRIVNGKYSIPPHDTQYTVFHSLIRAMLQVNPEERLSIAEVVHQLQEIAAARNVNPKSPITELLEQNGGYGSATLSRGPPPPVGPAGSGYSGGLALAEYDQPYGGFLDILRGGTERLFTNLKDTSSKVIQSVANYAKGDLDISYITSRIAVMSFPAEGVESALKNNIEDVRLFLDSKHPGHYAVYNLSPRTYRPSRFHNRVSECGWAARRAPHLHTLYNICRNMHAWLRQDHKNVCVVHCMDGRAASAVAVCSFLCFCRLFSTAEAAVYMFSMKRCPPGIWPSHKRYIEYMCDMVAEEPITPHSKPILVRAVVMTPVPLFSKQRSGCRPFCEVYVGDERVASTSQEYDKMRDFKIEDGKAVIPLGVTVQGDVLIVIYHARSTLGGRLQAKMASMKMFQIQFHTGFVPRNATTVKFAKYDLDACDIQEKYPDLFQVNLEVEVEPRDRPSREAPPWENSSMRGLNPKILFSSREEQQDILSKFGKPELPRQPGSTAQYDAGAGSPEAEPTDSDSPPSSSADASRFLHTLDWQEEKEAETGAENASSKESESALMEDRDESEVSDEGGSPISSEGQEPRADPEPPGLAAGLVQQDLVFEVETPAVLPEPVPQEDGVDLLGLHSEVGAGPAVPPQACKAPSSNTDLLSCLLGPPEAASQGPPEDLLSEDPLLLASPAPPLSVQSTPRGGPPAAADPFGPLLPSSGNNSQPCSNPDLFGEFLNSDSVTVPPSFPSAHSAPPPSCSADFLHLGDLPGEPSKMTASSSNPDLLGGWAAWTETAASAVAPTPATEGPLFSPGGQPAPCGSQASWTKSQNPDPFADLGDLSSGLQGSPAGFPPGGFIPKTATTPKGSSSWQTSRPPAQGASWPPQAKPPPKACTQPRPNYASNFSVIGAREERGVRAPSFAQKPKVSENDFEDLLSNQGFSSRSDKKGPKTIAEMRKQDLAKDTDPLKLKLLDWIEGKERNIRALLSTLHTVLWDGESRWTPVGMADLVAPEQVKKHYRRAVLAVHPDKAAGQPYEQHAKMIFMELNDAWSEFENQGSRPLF

[2] = target: T2, Ephrin type-B receptor 4 (Homo sapiens) (UniProt P54760); assay: Inhibition of EPHB4 (unknown origin) assessed as residual activity at 1000 nM by KINOMEscan analysis relative to control
T2 sequence (whole entry): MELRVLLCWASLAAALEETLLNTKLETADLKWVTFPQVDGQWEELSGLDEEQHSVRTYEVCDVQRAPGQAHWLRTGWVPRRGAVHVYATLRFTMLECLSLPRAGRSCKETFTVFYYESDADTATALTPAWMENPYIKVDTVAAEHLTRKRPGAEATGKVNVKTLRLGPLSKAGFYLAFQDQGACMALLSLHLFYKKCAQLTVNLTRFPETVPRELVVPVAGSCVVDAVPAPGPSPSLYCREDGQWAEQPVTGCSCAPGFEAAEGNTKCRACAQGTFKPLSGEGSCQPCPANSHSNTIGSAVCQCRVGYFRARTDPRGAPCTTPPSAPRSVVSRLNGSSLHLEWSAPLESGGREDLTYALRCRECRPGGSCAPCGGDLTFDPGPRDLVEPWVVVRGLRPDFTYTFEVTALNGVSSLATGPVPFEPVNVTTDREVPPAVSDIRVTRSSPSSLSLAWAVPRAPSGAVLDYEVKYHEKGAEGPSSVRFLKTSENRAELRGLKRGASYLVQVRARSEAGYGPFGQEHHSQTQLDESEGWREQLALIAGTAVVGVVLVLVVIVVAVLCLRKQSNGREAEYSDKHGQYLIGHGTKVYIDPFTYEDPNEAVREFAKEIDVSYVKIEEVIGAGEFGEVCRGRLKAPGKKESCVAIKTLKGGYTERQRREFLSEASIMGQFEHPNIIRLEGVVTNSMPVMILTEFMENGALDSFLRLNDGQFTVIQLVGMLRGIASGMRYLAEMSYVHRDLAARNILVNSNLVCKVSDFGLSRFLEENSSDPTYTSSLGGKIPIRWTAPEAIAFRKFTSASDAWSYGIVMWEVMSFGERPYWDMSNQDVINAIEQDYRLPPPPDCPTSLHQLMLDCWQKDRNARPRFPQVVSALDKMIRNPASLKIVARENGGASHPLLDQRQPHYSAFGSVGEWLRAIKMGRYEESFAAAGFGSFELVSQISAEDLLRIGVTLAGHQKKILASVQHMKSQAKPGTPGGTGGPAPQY

| Compound | Activity [1] [%] | Activity [2] [%] |
| --- | --- | --- |
| COc1cc2nc(C)nc(N[C@H](C)c3cccc(-c4cn[nH]c4)c3)c2cc1OC | 96 | 45 |
| COc1cc2ncnc(N[C@H](C)c3cccc4ccccc34)c2cc1OC | 59 | 99 |
